Results published in US10800772B2 (Gilead Sciences, Inc., priority 2016, dated 2020).

How the values were obtained:
Format in all cases: cell-based, HIV-1
HIV-IIIb IN T174I DE = experiment: Antiviral assay in MT4 cells, HIV-IIIb IN T174I DE virus (from dose escalation passaging); conditions: Human immunodeficiency virus 1, IIIB, MT4, 120 h, read-out: T174I DE EC50, MT4 cells, HIV-IIIb IN T174I DE (dose escalation), 5 days, CellTiter-Glo
Procedure, shortened: (§1)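 Each EC50 is the compound concentration that reduced CellTiter-Glo luminescence by 50% after 5 days of culture of HIV-IIIb-infected MT4 cells. Infection was at 0.004 m.o.i. with 3 h pre-incubation. Testing used 10 concentrations in quadruplicate.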

HIV-IIIb (wildtype) = experiment: Antiviral assay in MT4 cells, HIV-IIIb wildtype; conditions: Human immunodeficiency virus 1, IIIB, MT4, 120 h, read-out: WT EC50
Procedure, shortened: as §1

HIV-IIIb IN T174I BT = experiment: Antiviral assay in MT4 cells, HIV-IIIb IN T174I BT virus (from viral breakthrough); conditions: Human immunodeficiency virus 1, IIIB, MT4, 120 h, read-out: T174I BT EC50, MT4 cells, HIV-IIIb IN T174I BT (viral breakthrough), 5 days, CellTiter-Glo
Procedure, shortened: as §1

| SMILES | EC50 (HIV-IIIb IN T174I DE) [nM] | EC50 (HIV-IIIb (wildtype)) [nM] | EC50 (HIV-IIIb IN T174I BT) [nM] |
| --- | --- | --- | --- |
| COCCN1CC(c2nn(C)c3ccc(-c4nc5cc(C)c([C@H](OC(C)(C)C)C(=O)O)c(-c6ccc(Cl)cc6)c5s4)cc23)C1 [Compound 56, (S)-2-(tert-butoxy)-2-(7-(4-chlorophenyl)-2-(3-(1-(2-methoxyethyl)azetidin-3-yl)-1-methyl-1H-indazol-5-yl)-5-methylbenzo[d]thiazol-6-yl)acetic acid] | 2070 | 4 | 1390 |
| CCn1nc(C2CCN([C@H]3CCN(C(=O)OC)C3)CC2)c2cc(-c3nc4cc(C)c([C@H](OC(C)(C)C)C(=O)O)c(-c5ccc(Cl)cc5)c4s3)ccc21 [Compound 49, (S)-2-(tert-butoxy)-2-(7-(4-chlorophenyl)-2-(1-ethyl-3-(1-((S)-1-(methoxycarbonyl)pyrrolidin-3-yl)piperidin-4-yl)-1H-indazol-5-yl)-5-methylbenzo[d]thiazol-6-yl)acetic acid] | 286 | 4 | 79 |
| COC(=O)N1CC[C@H](N2CCC(c3nn(C)c4ccc(-c5nc6cc(C)c([C@H](OC(C)(C)C)C(=O)O)c(-c7ccc(Cl)cc7)c6s5)nc34)CC2)C1 [Compound 193, (S)-2-(tert-butoxy)-2-(7-(4-chloro-phenyl)-2-(3-(1-((S)-l-(methoxy-carbonyl)pyrrolidin-3-yl)piperidin-4-yl)-1-methyl-1H-pyrazolo[4,3-b]pyridin-5-yl)-5-methylbenzo[d]thiazol-6-yl) acetic acid] | 265 | 3 | 87 |
| CCn1nc2ccc(-c3nc4cc(C)c([C@H](OC(C)(C)C)C(=O)O)c(-c5ccc(Cl)cc5)c4s3)cc2c1C1CCN(C2COC2)CC1 [Compound 36, (S)-2-(tert-butoxy)-2-(7-(4-chlorophenyl)-2-(2-ethyl-3-(1-(oxetan-3-yl)piperidin-4-yl)-2H-indazol-5-yl)-5-methylbenzo[d]thiazol-6-yl)acetic acid] | 3580 | 14 | 1080 |
| COC(=O)N1CC(N2CCC(c3cnn4ccc(-c5nc6cc(C)c([C@H](OC(C)(C)C)C(=O)O)c(-c7ccc(Cl)cc7)c6s5)nc34)CC2)C1 [Compound 110, (S)-2-(tert-butoxy)-2-(7-(4-chlorophenyl)-2-(3-(1-(1-(methoxycarbonyl)azetidin-3-yl)piperidin-4-yl)pyrazolo[1,5-a]pyrimidin-5-yl)-5-methylbenzo[d]thiazol-6-yl)acetic acid] | 559 | 2 | 198 |
| COC(=O)N1CC(N2CCC(c3cn(C)c4ncc(-c5nc6cc(C)c([C@H](OC(C)(C)C)C(=O)O)c(-c7ccc(Cl)cc7)c6s5)nc34)CC2)C1 [Compound 199, (S)-2-(tert-butoxy)-2-(7-(4-chloro-phenyl)-2-(7-(1-(1-(methoxycarbonyl)azetidin-3-yl)piperidin-4-yl)-5-methyl-5H-pyrrolo[2,3-b]pyrazin-2-yl)-5-methylbenzo[d]thiazol-6-yl) acetic acid] | 770 | 4 | 149 |
| COC(=O)N1CC(N2CCC(c3cn(C)c4ncc(-c5nc6cc(C)c([C@H](OC(C)(C)C)C(=O)O)c(-c7ccc(Cl)cc7)c6s5)cc34)CC2)C1 [Compound 203, (S)-2-(tert-butoxy)-2-(7-(4-chloro-phenyl)-2-(3-(1-(1-(methoxycarbonyl)azetidin-3-yl)piperidin-4-yl)-1-methyl-1H-pyrrolo[2,3-b]pyridin-5-yl)-5-methylbenzo[d]thiazol-6-yl) acetic acid] | 702 | 11 | 215 |
| Cc1cc2nc(-c3ccc4c(c3)c(C3CCN(C(=O)[C@@H]5CCCO5)CC3)nn4C)sc2c(-c2ccc(Cl)cc2)c1[C@H](OC(C)(C)C)C(=O)O [Compound 157, (S)-2-(tert-butoxy)-2-(7-(4-chloro-phenyl)-5-methyl-2-(1-methyl-3-(1-((S)-tetrahydrofuran-2-carbonyl)piperidin-4-yl)-1H-indazol-5-yl)benzo[d]thiazol-6-yl)acetic acid] | 789 | 11 | 620 |
